Experiments:
[1] = biological target: T1, Kinesin-like protein KIF11 (Homo sapiens, UniProt P52732); assay: Inhibition of human mitotic kinesin Eg5 motor domain (1 to 368 residues) assessed as reduction in steady-state basal ATPase activity using ATP as substrate by pyruvate kinase/lactate dehydrogenase enzyme coupled assay
T1 sequence (P52732 whole entry): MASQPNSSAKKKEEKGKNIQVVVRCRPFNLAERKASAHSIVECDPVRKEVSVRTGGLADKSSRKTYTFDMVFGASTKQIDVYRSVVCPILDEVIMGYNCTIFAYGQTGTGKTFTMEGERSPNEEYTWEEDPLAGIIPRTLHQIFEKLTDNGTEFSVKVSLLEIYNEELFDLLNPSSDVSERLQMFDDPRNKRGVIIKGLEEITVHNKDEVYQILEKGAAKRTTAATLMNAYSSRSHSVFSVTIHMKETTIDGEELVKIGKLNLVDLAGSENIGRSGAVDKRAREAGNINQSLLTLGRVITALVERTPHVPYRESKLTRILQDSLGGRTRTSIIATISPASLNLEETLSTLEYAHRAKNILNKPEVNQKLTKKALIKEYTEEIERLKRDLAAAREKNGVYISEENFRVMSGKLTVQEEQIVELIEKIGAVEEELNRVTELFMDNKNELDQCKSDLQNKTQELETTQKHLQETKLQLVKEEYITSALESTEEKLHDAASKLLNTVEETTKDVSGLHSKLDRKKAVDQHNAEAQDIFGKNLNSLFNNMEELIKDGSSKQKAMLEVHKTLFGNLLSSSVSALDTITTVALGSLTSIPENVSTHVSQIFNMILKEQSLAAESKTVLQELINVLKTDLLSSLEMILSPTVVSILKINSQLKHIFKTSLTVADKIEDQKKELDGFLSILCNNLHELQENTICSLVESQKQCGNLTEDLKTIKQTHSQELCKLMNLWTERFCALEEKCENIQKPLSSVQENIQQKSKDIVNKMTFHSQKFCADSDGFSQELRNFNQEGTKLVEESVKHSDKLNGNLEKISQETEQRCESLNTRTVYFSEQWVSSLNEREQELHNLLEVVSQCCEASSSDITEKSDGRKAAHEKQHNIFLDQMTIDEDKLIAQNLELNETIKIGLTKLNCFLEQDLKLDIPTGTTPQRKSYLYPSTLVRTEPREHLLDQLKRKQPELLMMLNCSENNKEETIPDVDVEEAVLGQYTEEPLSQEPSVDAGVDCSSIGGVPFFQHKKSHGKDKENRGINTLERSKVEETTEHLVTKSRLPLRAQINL

[2] = biological target: T1, Kinesin-like protein KIF11; assay: Inhibition of mitotic kinesin Eg5 (unknown origin)

Row | IC50 [1] [µM] | IC50 [2] [µM] | Structure (SMILES)
1 | 9.03 |  | CC(=O)Nc1ncnc(N2CCCC(NC(=O)COc3cccc(Cl)c3)C2)c1-c1ccccc1 (centres undefined)
2 | 4.86 |  | CC(=O)Nc1ncnc(N2CCCC(NC(=O)c3cccc(C(F)(F)F)c3)C2)c1-c1ccccc1 (centres undefined)
3 | 11.4 |  | CC(=O)Nc1ncnc(N2CCCC(NC(=O)Cc3cccc(F)c3)C2)c1-c1ccccc1 (centres undefined)
4 |  | 0.459 | COc1ccc(Nc2nc3cc(C(=O)O)ccc3n2Cc2ccccc2C(F)(F)F)cc1F

Reference: ChEMBL document CHEMBL4145550, “Synthesis of N-(1-(6-acetamido-5-phenylpyrimidin-4-yl) piperidin-3-yl) amide derivatives as potential inhibitors for mitotic kinesin spindle protein” (Eur J Med Chem, 2018)
